Experimental data as given in article PMC10052868 (European journal of medicinal chemistry, 2022).

Assays:
PfNEK3 = target: T1, PfNEK3 (Plasmodium falciparum, UniProt Q8I629); assay: KinaseSeeker assay on PfNEK3; type: binding, P. falciparum
T1 sequence (Q8I629 1-347): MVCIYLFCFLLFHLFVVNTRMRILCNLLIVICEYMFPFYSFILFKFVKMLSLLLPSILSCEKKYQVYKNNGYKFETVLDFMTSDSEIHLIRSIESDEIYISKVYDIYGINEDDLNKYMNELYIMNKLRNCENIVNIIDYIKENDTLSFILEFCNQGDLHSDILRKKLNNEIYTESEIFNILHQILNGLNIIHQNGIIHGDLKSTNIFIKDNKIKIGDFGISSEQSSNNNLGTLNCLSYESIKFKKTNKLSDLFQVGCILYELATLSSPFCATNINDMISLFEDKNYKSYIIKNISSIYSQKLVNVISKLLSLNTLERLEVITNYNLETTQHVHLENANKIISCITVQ

PfCDPK5 = PfCDPK5 (Plasmodium falciparum, UniProt A0A5K1K8H0); assay: KinaseSeeker assay on PfCDPK5; type: binding, P. falciparum
PfPKB = PfPKB (Plasmodium falciparum, UniProt Q8I4W3); assay: KinaseSeeker assay on PfPKB; type: binding, P. falciparum
PfGSK3 = PfGSK3 (Plasmodium falciparum, UniProt O77344); assay: KinaseSeeker assay on PfGSK3; type: binding, P. falciparum
[1] = tested on: panel of 468 kinases (403 non-mutant kinases); type: binding, human; conditions: for number of non-mutant kinases inhibited with ≤1% control: 1 μM, out of 403 non-mutant kinases
P. berghei ANKA = assay: P. berghei liver stage parasite load assay in HepG2 cells; type: cell-based; conditions: for P. berghei liver stage activity in words: inactive = EC50 not reported because <5-fold difference between observed EC50 and HepG2 CellTiter-Fluor cytotoxicity; for fold difference between P. berghei EC50 and CellTiter-Fluor CC50: HepG2 host cells
PfARK3 = assay: KinaseSeeker assay on PfARK3; type: binding, P. falciparum; conditions: duplicate
PfNEK1 = assay: KinaseSeeker assay on PfNEK1; type: binding, P. falciparum; conditions: duplicate
PfPK6 = PfPK6 (Plasmodium falciparum, UniProt Q8IDW1); assay: KinaseSeeker split-luciferase assay on PfPK6; type: binding, P. falciparum; conditions: for remaining activity at 1 µM: read-out: PfPK6 activity remaining at 1 μM (%)
P. falciparum 3D7 = assay: P. falciparum asexual blood stage viability assay; type: cell-based
PfPK9 = assay: KinaseSeeker assay on PfPK9; type: binding, P. falciparum; conditions: duplicate
PfPK5 = PfPK5 (Plasmodium falciparum, UniProt P61075); assay: KinaseSeeker assay on PfPK5; type: binding, P. falciparum; conditions: read-out: PfPK5 % Activity remaining at 1 μM
PfARK1 = assay: KinaseSeeker assay on PfARK1; type: binding, P. falciparum; conditions: duplicate
[2] = GE = −ΔΔG / Δ(no. of heavy atoms), PfPK6 inhibition

PfPK5, sequence (P61075 whole entry): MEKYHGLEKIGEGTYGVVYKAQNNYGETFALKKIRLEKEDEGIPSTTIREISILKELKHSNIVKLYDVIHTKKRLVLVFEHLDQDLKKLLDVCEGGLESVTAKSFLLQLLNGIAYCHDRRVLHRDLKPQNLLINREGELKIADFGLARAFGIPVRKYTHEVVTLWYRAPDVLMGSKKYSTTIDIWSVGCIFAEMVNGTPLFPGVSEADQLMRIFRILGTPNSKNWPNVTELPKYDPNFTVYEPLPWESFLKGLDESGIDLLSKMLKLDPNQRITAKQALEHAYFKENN
PfCDPK5, sequence (A0A5K1K8H0 whole entry): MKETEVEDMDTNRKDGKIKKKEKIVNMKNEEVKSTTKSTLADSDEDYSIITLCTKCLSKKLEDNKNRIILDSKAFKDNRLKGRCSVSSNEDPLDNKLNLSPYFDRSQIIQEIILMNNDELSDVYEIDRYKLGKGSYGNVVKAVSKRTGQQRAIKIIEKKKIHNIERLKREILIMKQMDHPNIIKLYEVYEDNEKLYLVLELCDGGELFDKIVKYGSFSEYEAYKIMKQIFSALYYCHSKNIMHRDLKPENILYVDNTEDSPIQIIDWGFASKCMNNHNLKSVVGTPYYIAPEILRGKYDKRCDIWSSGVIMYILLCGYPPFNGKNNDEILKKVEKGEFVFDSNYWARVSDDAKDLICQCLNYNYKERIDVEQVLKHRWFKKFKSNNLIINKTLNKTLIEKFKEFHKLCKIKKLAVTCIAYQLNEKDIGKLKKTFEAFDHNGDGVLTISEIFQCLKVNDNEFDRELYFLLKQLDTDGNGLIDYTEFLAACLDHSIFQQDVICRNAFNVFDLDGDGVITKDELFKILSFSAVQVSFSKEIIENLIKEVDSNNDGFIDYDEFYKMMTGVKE

SMILES: COc1cc2nccc(Oc3ccc(NC(=O)Nc4ccc(CN5CCN(C)CC5)c(C(F)(F)F)c4)c(F)c3)c2cc1OC [Compound 45, 1-(4-((6,7-dimethoxyquinolin-4-yl)oxy)-2-fluorophenyl)-3-(4-((4-methylpiperazin-1-yl)methyl)-3-(trifluoromethyl)phenyl)urea diformate]
- IC50 (PfNEK3): 0.04 to 0.144 µM
- IC50 (PfCDPK5): 0.04 to 0.144 µM
- IC50 (PfPKB): 0.04 to 0.144 µM
- IC50 (PfGSK3): 0.04 to 0.144 µM
- number of non-mutant kinases inhibited with ≤1% control [1]: 134

SMILES: COc1cc2nccc(Oc3ccc(NC(=O)Nc4ccc(CC5CCNCC5)cc4)c(F)c3)c2cc1OC [Compound 67, 1-(4-((6,7-dimethoxyquinolin-4-yl)oxy)-2-fluorophenyl)-3-(4-(piperidin-4-ylmethyl)phenyl)urea]
- P. berghei liver stage activity in words (P. berghei ANKA): inactive^g
- PfARK3 % Activity remaining at 1 μM (PfARK3): 100%
- PfNEK1 % Activity remaining at 1 μM (PfNEK1): 100%
- remaining activity at 1 µM (PfPK6): 2%
- number of non-mutant kinases inhibited with ≤1% control [1]: 22

SMILES: COc1cc2nccc(Oc3ccc(NC(=O)Nc4ccc(C=C5CCNCC5)cc4)c(F)c3)c2cc1OC [Compound 68, 1-(4-((6,7-dimethoxyquinolin-4-yl)oxy)-2-fluorophenyl)-3-(4-(piperidin-4-ylidenemethyl)phenyl)urea]
- fold difference between P. berghei EC50 and CellTiter-Fluor CC50 (P. berghei ANKA): 1.9 fold
- P. berghei liver stage activity in words (P. berghei ANKA): inactive^g
- fold improvement in P. falciparum blood stage inhibitory activity over 41 (P. falciparum 3D7; compared to 41): approximately 4 fold
- PfPK9 % Activity remaining at 1 μM (PfPK9): 100%
- PfARK3 % Activity remaining at 1 μM (PfARK3): 100%
- PfNEK1 % Activity remaining at 1 μM (PfNEK1): 100%
- remaining activity at 1 µM (PfPK6): 1%
- remaining activity at 1 µM (PfPK5): 100%

SMILES: COc1cc2nccc(Oc3ccc(NC(=O)Nc4ccc(OC5CCN(C)CC5)c(C(F)(F)F)c4)c(F)c3)c2cc1OC [Compound 75, 1-(4-((6,7-dimethoxyquinolin-4-yl)oxy)-2-fluorophenyl)-3-(4-((1-methylpiperidin-4-yl)oxy)-3-(trifluoromethyl)phenyl)urea]
- fold difference between P. berghei EC50 and CellTiter-Fluor CC50 (P. berghei ANKA): 1.9 fold
- P. berghei liver stage activity in words (P. berghei ANKA): inactive^g
- fold improvement in P. falciparum blood stage potency on adding CF3 or OCF3 (P. falciparum 3D7; compared to parent compound without meta group (64, 66, 67 or 68)): 8 fold
- PfNEK1 % Activity remaining at 1 μM (PfNEK1): 100%
- remaining activity at 1 µM (PfPK6): 0%

SMILES: COc1cc2nccc(Oc3ccc(NC(=O)Nc4ccc(CC5CCNCC5)c(C(F)(F)F)c4)c(F)c3)c2cc1OC [Compound 79, 1-(4-((6,7-dimethoxyquinolin-4-yl)oxy)-2-fluorophenyl)-3-(4-(piperidin-4-ylmethyl)-3-(trifluoromethyl)phenyl)urea]
- PfNEK1 % Activity remaining at 1 μM (PfNEK1): 100%
- IC50 (PfPK6): < 0.005 µM
- remaining activity at 1 µM (PfPK6): 1%
- PfARK1 % Activity remaining at 1 μM (PfARK1): 100%

SMILES: COc1cc2nccc(Oc3ccc(NC(=O)Nc4ccc(F)cc4F)c(F)c3)c2cc1OC [Ki8751, reference compound]
- group efficiency (GE) of the 7-methoxy group (PfPK6; [2]): 0.81 ± 0.04
- group efficiency (GE) of the entire urea group (PfPK6; [2]): 0.39 ± 0.02
- group efficiency (GE) of the tail phenyl ring (PfPK6; [2]): > 0.41 ± 0.005
- number of non-mutant kinases inhibited with ≤1% control [1]: 16
- selectivity score S1 (1 μM) ([1]; KINOMEscan, 403 non-mutant kinases): 0.040
